{"source": "patent US20240415914A1", "about": "“Water Dispersible Cannabinoid Compositions” (priority 2021, published 2024)", "assay": "Stability of cannabinoid and Vitamin E components of Beverage 1 (AB White) stored at 8° C. and 21-25° C., LCMSMS over 570 days", "type": "physicochemical", "details": "for Stability in AB White, 8° C. (content by LCMSMS): beverage stored at 8° C.; for Stability in AB White, 21-25° C. (content by LCMSMS): beverage stored at 21-25° C.", "experimental": "The LCMSMS was calibrated for 0-1000 ng/ml cannabinoids with the same resin material used in the preparation of the concentrates. At each time period, 100 ml of beverage was diluted with 10 ml of methanol and injected into the LCMSMS for analysis.", "data": [{"molecule": "CCCCCc1cc(O)c2c(c1)OC(C)(C)c1ccc(C)cc1-2", "note": "[CBN, cannabinol]", "values": [{"measurement": "Stability in AB White, 8° C. (content by LCMSMS)", "setting": "day 0", "result": 2.79, "unit": "µg/mL"}, {"measurement": "Stability in AB White, 8° C. (content by LCMSMS)", "setting": "day 1", "result": 2.77, "unit": "µg/mL"}, {"measurement": "Stability in AB White, 8° C. (content by LCMSMS)", "setting": "day 2", "result": 2.72, "unit": "µg/mL"}, {"measurement": "Stability in AB White, 8° C. (content by LCMSMS)", "setting": "day 3", "result": 2.73, "unit": "µg/mL"}, {"measurement": "Stability in AB White, 8° C. (content by LCMSMS)", "setting": "day 5", "result": 2.76, "unit": "µg/mL"}, {"measurement": "Stability in AB White, 8° C. (content by LCMSMS)", "setting": "day 8", "result": 2.75, "unit": "µg/mL"}, {"measurement": "Stability in AB White, 8° C. (content by LCMSMS)", "setting": "day 9", "result": 2.76, "unit": "µg/mL"}, {"measurement": "Stability in AB White, 8° C. (content by LCMSMS)", "setting": "day 10", "result": 2.79, "unit": "µg/mL"}, {"measurement": "Stability in AB White, 8° C. (content by LCMSMS)", "setting": "day 11", "result": 2.71, "unit": "µg/mL"}, {"measurement": "Stability in AB White, 8° C. (content by LCMSMS)", "setting": "day 12", "result": 2.80, "unit": "µg/mL"}, {"measurement": "Stability in AB White, 8° C. (content by LCMSMS)", "setting": "day 15", "result": 2.79, "unit": "µg/mL"}, {"measurement": "Stability in AB White, 8° C. (content by LCMSMS)", "setting": "day 16", "result": 2.77, "unit": "µg/mL"}, {"measurement": "Stability in AB White, 8° C. (content by LCMSMS)", "setting": "day 17", "result": 2.82, "unit": "µg/mL"}, {"measurement": "Stability in AB White, 8° C. (content by LCMSMS)", "setting": "day 18", "result": 2.71, "unit": "µg/mL"}, {"measurement": "Stability in AB White, 8° C. (content by LCMSMS)", "setting": "day 19", "result": 2.71, "unit": "µg/mL"}, {"measurement": "Stability in AB White, 8° C. (content by LCMSMS)", "setting": "day 22", "result": 2.76, "unit": "µg/mL"}, {"measurement": "Stability in AB White, 8° C. (content by LCMSMS)", "setting": "day 23", "result": 2.71, "unit": "µg/mL"}, {"measurement": "Stability in AB White, 8° C. (content by LCMSMS)", "setting": "day 24", "result": 2.75, "unit": "µg/mL"}, {"measurement": "Stability in AB White, 8° C. (content by LCMSMS)", "setting": "day 25", "result": 2.75, "unit": "µg/mL"}, {"measurement": "Stability in AB White, 8° C. (content by LCMSMS)", "setting": "day 26", "result": 2.76, "unit": "µg/mL"}, {"measurement": "Stability in AB White, 8° C. (content by LCMSMS)", "setting": "day 29", "result": 2.76, "unit": "µg/mL"}, {"measurement": "Stability in AB White, 8° C. (content by LCMSMS)", "setting": "day 30", "result": 2.78, "unit": "µg/mL"}, {"measurement": "Stability in AB White, 8° C. (content by LCMSMS)", "setting": "day 60", "result": 2.68, "unit": "µg/mL"}, {"measurement": "Stability in AB White, 8° C. (content by LCMSMS)", "setting": "day 90", "result": 2.74, "unit": "µg/mL"}, {"measurement": "Stability in AB White, 8° C. (content by LCMSMS)", "setting": "day 120", "result": 2.72, "unit": "µg/mL"}, {"measurement": "Stability in AB White, 8° C. (content by LCMSMS)", "setting": "day 150", "result": 2.69, "unit": "µg/mL"}, {"measurement": "Stability in AB White, 8° C. (content by LCMSMS)", "setting": "day 180", "result": 2.77, "unit": "µg/mL"}, {"measurement": "Stability in AB White, 8° C. (content by LCMSMS)", "setting": "day 210", "result": 2.75, "unit": "µg/mL"}, {"measurement": "Stability in AB White, 8° C. (content by LCMSMS)", "setting": "day 240", "result": 2.70, "unit": "µg/mL"}, {"measurement": "Stability in AB White, 8° C. (content by LCMSMS)", "setting": "day 270", "result": 2.75, "unit": "µg/mL"}, {"measurement": "Stability in AB White, 8° C. (content by LCMSMS)", "setting": "day 300", "result": 2.71, "unit": "µg/mL"}, {"measurement": "Stability in AB White, 8° C. (content by LCMSMS)", "setting": "day 330", "result": 2.75, "unit": "µg/mL"}, {"measurement": "Stability in AB White, 8° C. (content by LCMSMS)", "setting": "day 360", "result": 2.68, "unit": "µg/mL"}, {"measurement": "Stability in AB White, 8° C. (content by LCMSMS)", "setting": "day 390", "result": 2.67, "unit": "µg/mL"}, {"measurement": "Stability in AB White, 8° C. (content by LCMSMS)", "setting": "day 420", "result": 2.70, "unit": "µg/mL"}, {"measurement": "Stability in AB White, 8° C. (content by LCMSMS)", "setting": "day 450", "result": 2.70, "unit": "µg/mL"}, {"measurement": "Stability in AB White, 8° C. (content by LCMSMS)", "setting": "day 480", "result": 2.66, "unit": "µg/mL"}, {"measurement": "Stability in AB White, 8° C. (content by LCMSMS)", "setting": "day 510", "result": 2.60, "unit": "µg/mL"}, {"measurement": "Stability in AB White, 8° C. (content by LCMSMS)", "setting": "day 540", "result": 2.56, "unit": "µg/mL"}, {"measurement": "Stability in AB White, 8° C. (content by LCMSMS)", "setting": "day 570", "result": 2.56, "unit": "µg/mL"}, {"measurement": "Stability in AB White, 21-25° C. (content by LCMSMS)", "setting": "day 0", "result": 2.79, "unit": "µg/mL"}, {"measurement": "Stability in AB White, 21-25° C. (content by LCMSMS)", "setting": "day 1", "result": 2.79, "unit": "µg/mL"}, {"measurement": "Stability in AB White, 21-25° C. (content by LCMSMS)", "setting": "day 2", "result": 2.81, "unit": "µg/mL"}, {"measurement": "Stability in AB White, 21-25° C. (content by LCMSMS)", "setting": "day 3", "result": 2.73, "unit": "µg/mL"}, {"measurement": "Stability in AB White, 21-25° C. (content by LCMSMS)", "setting": "day 5", "result": 2.80, "unit": "µg/mL"}, {"measurement": "Stability in AB White, 21-25° C. (content by LCMSMS)", "setting": "day 8", "result": 2.71, "unit": "µg/mL"}, {"measurement": "Stability in AB White, 21-25° C. (content by LCMSMS)", "setting": "day 9", "result": 2.78, "unit": "µg/mL"}, {"measurement": "Stability in AB White, 21-25° C. (content by LCMSMS)", "setting": "day 10", "result": 2.77, "unit": "µg/mL"}, {"measurement": "Stability in AB White, 21-25° C. (content by LCMSMS)", "setting": "day 11", "result": 2.80, "unit": "µg/mL"}, {"measurement": "Stability in AB White, 21-25° C. (content by LCMSMS)", "setting": "day 12", "result": 2.75, "unit": "µg/mL"}, {"measurement": "Stability in AB White, 21-25° C. (content by LCMSMS)", "setting": "day 15", "result": 2.81, "unit": "µg/mL"}, {"measurement": "Stability in AB White, 21-25° C. (content by LCMSMS)", "setting": "day 16", "result": 2.75, "unit": "µg/mL"}, {"measurement": "Stability in AB White, 21-25° C. (content by LCMSMS)", "setting": "day 17", "result": 2.70, "unit": "µg/mL"}, {"measurement": "Stability in AB White, 21-25° C. (content by LCMSMS)", "setting": "day 18", "result": 2.78, "unit": "µg/mL"}, {"measurement": "Stability in AB White, 21-25° C. (content by LCMSMS)", "setting": "day 19", "result": 2.73, "unit": "µg/mL"}, {"measurement": "Stability in AB White, 21-25° C. (content by LCMSMS)", "setting": "day 22", "result": 2.69, "unit": "µg/mL"}, {"measurement": "Stability in AB White, 21-25° C. (content by LCMSMS)", "setting": "day 23", "result": 2.68, "unit": "µg/mL"}, {"measurement": "Stability in AB White, 21-25° C. (content by LCMSMS)", "setting": "day 24", "result": 2.79, "unit": "µg/mL"}, {"measurement": "Stability in AB White, 21-25° C. (content by LCMSMS)", "setting": "day 25", "result": 2.75, "unit": "µg/mL"}, {"measurement": "Stability in AB White, 21-25° C. (content by LCMSMS)", "setting": "day 26", "result": 2.69, "unit": "µg/mL"}, {"measurement": "Stability in AB White, 21-25° C. (content by LCMSMS)", "setting": "day 29", "result": 2.75, "unit": "µg/mL"}, {"measurement": "Stability in AB White, 21-25° C. (content by LCMSMS)", "setting": "day 30", "result": 2.72, "unit": "µg/mL"}, {"measurement": "Stability in AB White, 21-25° C. (content by LCMSMS)", "setting": "day 60", "result": 2.63, "unit": "µg/mL"}, {"measurement": "Stability in AB White, 21-25° C. (content by LCMSMS)", "setting": "day 90", "result": 2.66, "unit": "µg/mL"}, {"measurement": "Stability in AB White, 21-25° C. (content by LCMSMS)", "setting": "day 120", "result": 2.67, "unit": "µg/mL"}, {"measurement": "Stability in AB White, 21-25° C. (content by LCMSMS)", "setting": "day 150", "result": 2.77, "unit": "µg/mL"}, {"measurement": "Stability in AB White, 21-25° C. (content by LCMSMS)", "setting": "day 180", "result": 2.68, "unit": "µg/mL"}, {"measurement": "Stability in AB White, 21-25° C. (content by LCMSMS)", "setting": "day 210", "result": 2.74, "unit": "µg/mL"}, {"measurement": "Stability in AB White, 21-25° C. (content by LCMSMS)", "setting": "day 240", "result": 2.71, "unit": "µg/mL"}, {"measurement": "Stability in AB White, 21-25° C. (content by LCMSMS)", "setting": "day 270", "result": 2.67, "unit": "µg/mL"}, {"measurement": "Stability in AB White, 21-25° C. (content by LCMSMS)", "setting": "day 300", "result": 2.73, "unit": "µg/mL"}, {"measurement": "Stability in AB White, 21-25° C. (content by LCMSMS)", "setting": "day 330", "result": 2.75, "unit": "µg/mL"}, {"measurement": "Stability in AB White, 21-25° C. (content by LCMSMS)", "setting": "day 360", "result": 2.67, "unit": "µg/mL"}, {"measurement": "Stability in AB White, 21-25° C. (content by LCMSMS)", "setting": "day 390", "result": 2.66, "unit": "µg/mL"}, {"measurement": "Stability in AB White, 21-25° C. (content by LCMSMS)", "setting": "day 420", "result": 2.62, "unit": "µg/mL"}, {"measurement": "Stability in AB White, 21-25° C. (content by LCMSMS)", "setting": "day 450", "result": 2.61, "unit": "µg/mL"}, {"measurement": "Stability in AB White, 21-25° C. (content by LCMSMS)", "setting": "day 480", "result": 2.57, "unit": "µg/mL"}, {"measurement": "Stability in AB White, 21-25° C. (content by LCMSMS)", "setting": "day 510", "result": 2.66, "unit": "µg/mL"}, {"measurement": "Stability in AB White, 21-25° C. (content by LCMSMS)", "setting": "day 540", "result": 2.63, "unit": "µg/mL"}, {"measurement": "Stability in AB White, 21-25° C. (content by LCMSMS)", "setting": "day 570", "result": 2.56, "unit": "µg/mL"}]}]}
